# Test results: patent US20100151039A1, “SKIN MOISTURIZING AGENT FOR ORAL INTAKE AND FUNCTIONAL FOODS AND DRINKS” (CALPIS CO., LTD., priority 2003, published 2010)
# Assays:
# [1] = test system: serine palmitoyl transferase (SPT) mRNA; assay: Ability to promote synthesis of SPT: RT-PCR of SPT mRNA in normal human epidermic cells; details: 0.63 v/v % in medium, 24 hours; relative value, control = 100, standardized to cyclophilin mRNA
# Experimental: (§1) A 35 mm culture dish was seeded with the epidermic cells at a cell concentration of 5×10^5 cells per dish, and subjected to culture for 24 hours.
# (§2) (2) After the culture, the cells were washed with PBS (−), and lysed with 500 μl, per dish of TRIzol reagent (trade name, manufactured by Gibco BRL). 100 μL per dish of chloroform was added and mixed thoroughly. The supernatant aqueous phase was recovered by centrifugation, and RNAs were precipitated with 2-propanol to obtain the total RNAs. The obtained total RNAs were washed with 75% cold ethanol, and dissolved in diethyl pyrocarbonate (DEPC)-treated water.
# (§3) (3) 1 μg of the RNAs dissolved in DEPC-treated water was subjected to RT-PCR using One step RT-PCR kit (trade name, manufactured by Qiagen) in accordance with its protocol under the conditions and with the primers shown in Table 2, to reverse transcript and amplify the cDNA corresponding to serine palmitoyl transferase (SPT) mRNA, filaggrin mRNA, or cyclophilin RNA.
# (§4) (4) After the reaction, the reaction product was fractionated by 1% agarose gel electrophoresis. The electrophoresis gel was stained with ethidium bromide, and photographed under UV irradiation on a transilluminator, to determine the band intensity.
# The test was conducted twice.
# filaggrin mRNA = assay: Ability to promote synthesis of filaggrin: RT-PCR of filaggrin mRNA in normal human epidermic cells; details: 0.63 v/v % in medium, 24 hours; relative value, control = 100, standardized to cyclophilin mRNA
# Experimental: as §1, §2, §3, §4
# The test was conducted twice.
structure (smiles),measurement,setting,value
CC(O)C(=O)O (stereo not shown) [lactic acid],"Effect on expression of SPT mRNA of normal human epidermic cells, 1st Test",[1],91
same,"Effect on expression of SPT mRNA of normal human epidermic cells, 2nd Test",[1],111
same,"Effect on expression of filaggrin mRNA of normal epidermic cells, 1st Test",filaggrin mRNA,15
same,"Effect on expression of filaggrin mRNA of normal epidermic cells, 2nd Test",filaggrin mRNA,132
